Where two headings read alike, the source gives them in different places.
What was measured:
[1] = target: 16S ribosomal subunit RNA target; assay: Mass spectrometry based binding assay (FTICR), 16S
Experimental: In a typical experiment, 10 μL of an aqueous solution containing 100 mM ammonium acetate buffer, […], and 33% isopropyl alcohol (to aid ion desolvation) was prepared with different concentrations of each ligand or ligand mixture Samples were introduced into the electrospray ionization source (negative ionization mode) at 1 μL/min and ions were stored for 1 sec in an RF-only hexapole following desolvation. The abundances were integrated from the respective ions for free RNA and the ligand-RNA complex. The primary (1:1 RNA:ligand) and secondary (1:2 complex, if observed). […] The peak ratios were measured at each concentration, then a plot of complex/free RNA versus concentration of ligand added was fitted to a second (or higher) order binding polynomial to determine the KD.

[2] = target: 18S ribosomal subunit RNA target; assay: Mass spectrometry based binding assay (FTICR), 18S
Experimental: In a typical experiment, 10 μL of an aqueous solution containing 100 mM ammonium acetate buffer, 2.5 or 5 μM of each RNA, and 33% isopropyl alcohol (to aid ion desolvation) was prepared with different concentrations of each ligand or ligand mixture Samples were introduced into the electrospray ionization source (negative ionization mode) at 1 μL/min and ions were stored for 1 sec in an RF-only hexapole following desolvation. The abundances were integrated from the respective ions for free RNA and the ligand-RNA complex. The primary (1:1 RNA:ligand) and secondary (1:2 complex, if observed). […] The peak ratios were measured at each concentration, then a plot of complex/free RNA versus concentration of ligand added was fitted to a second (or higher) order binding polynomial to determine the KD.

[3] = tested on: E. coli S30 bacterial extract (pBestLuc firefly luciferase reporter); assay: Coupled bacterial transcription/translation assay; format: biochemical; details: read-out: Trans/Trans IC50
Experimental: The DNA template, pBestLuc™ (Promega), is a plasmid containing a reporter gene for firefly luciferase fused to a strong tac promoter and ribosome binding site. Messenger RNA from 1 μg pBestLuc is transcribed and translated in E. coli S30 bacterial extract in the presence or absence of test compound. Compounds are tested in a black 96 well microtiter plate with an assay volume of 35 μL. […] The transcription/translation reaction is incubated for 35 minutes at 37° C. followed by detection of functional luciferase with the addition of 30 μL LucLite™ (Packard). Light output is quantitated on a Packard TopCount.

E. Coli = assay: MIC, E. Coli; format: cell-based
Experimental: (§1) The MIC assays are carried out in 150 μL volume in duplicate in 96-well clear flat-bottom plates. The bacterial suspension from an overnight culture growth in appropriate medium is added to a solution of test compound in 4% DMSO in water. Final bacterial inoculum is approximately 10^5-10^6 CFU/well. […] Both ampicillin and tetracycline are used as antibiotic-positive controls in each screening assay for S. pyogenes, E. coli imp-, E. coli, S. aureus, E. faecalis, K. pneumoniae and P. vulgaris. Ciprofloxacin is used as an antibiotic positive control in each screening assay for P. aeruginosa.

S. Aureus = assay: MIC, S. Aureus; format: cell-based
Experimental: as §1

[4] = FTICR mass spectrometry, run at 100 nM RNA, Example 105
[5] = FTICR mass spectrometry, Example 105

Compound: NCC1OC(OC2C(CO)OC(OC3C(O)C(N)CC(N)C3OC3OC(CO)C(O)C(O)C3N)C2OCCNCCc2ccc3ccccc3c2)C(N)C(O)C1O (stereo not shown) [Compound 9ak]
- Kd [1, 4]: 700 nM
- Kd [2, 5]: 3500 nM
- IC50 ([3]; Example 105): 300 nM
- MIC E. Coli. (E. Coli; Example 105): 10 to 20 µM
- MIC S. Aureus (S. Aureus; Example 105): 1-3. uM

Compound: NCC1OC(OC2C(CO)OC(OC3C(O)C(N)CC(N)C3OC3OC(CO)C(O)C(O)C3N)C2OCCNCc2nc3ccccc3[nH]2)C(N)C(O)C1O (stereo not shown) [Compound 9e]
- Kd [1, 4]: 3900 nM
- Kd [2, 5]: 11000 nM
- IC50 ([3]; Example 105): 200 nM
- MIC E. Coli. (E. Coli; Example 105): >100 µM
- MIC S. Aureus (S. Aureus; Example 105): >100 µM

Compound: NCC1OC(OC2C(CO)OC(OC3C(O)C(N)CC(N)C3OC3OC(CO)C(O)C(O)C3N)C2OCCNC2CCCNC2)C(N)C(O)C1O (stereo not shown) [Compound 9j]
- Kd [1, 4]: 100 nM
- Kd [2, 5]: 5000 nM
- IC50 ([3]; Example 105): 100 nM
- MIC E. Coli. (E. Coli; Example 105): 1.5-3^ uM
- MIC S. Aureus (S. Aureus; Example 105): 3 to 6 µM

Compound: NCC1OC(OC2C(CO)OC(OC3C(O)C(N)CC(N)C3OC3OC(CO)C(O)C(O)C3N)C2OCCNCC2CCCNC2)C(N)C(O)C1O (stereo not shown) [Compound 9k]
- Kd [1, 4]: 300 nM
- Kd [2, 5]: 2600 nM
- IC50 ([3]; Example 105): 40 nM
- MIC E. Coli. (E. Coli; Example 105): 1.5-3^ uM
- MIC S. Aureus (S. Aureus; Example 105): 3 to 6 µM

Compound: NCC1OC(OC2C(CO)OC(OC3C(O)C(N)CC(N)C3OC3OC(CO)C(O)C(O)C3N)C2OCCNc2cnc3ccccc3c2)C(N)C(O)C1O (stereo not shown) [Compound 9m]
- Kd [1, 4]: 100 nM
- Kd [2, 5]: 900 nM
- IC50 ([3]; Example 105): 100 nM
- MIC E. Coli. (E. Coli; Example 105): 12 to 25 µM
- MIC S. Aureus (S. Aureus; Example 105): 1 to 2 µM

Compound: NCC1OC(OC2C(CO)OC(OC3C(O)C(N)CC(N)C3OC3OC(CO)C(O)C(O)C3N)C2OCCNC2CCCCC2)C(N)C(O)C1O (stereo not shown) [Compound 9n]
- Kd [1, 4]: 100 nM
- Kd [2, 5]: 400 nM
- IC50 ([3]; Example 105): 200 nM
- MIC E. Coli. (E. Coli; Example 105): 3 to 6 µM
- MIC S. Aureus (S. Aureus; Example 105): 3 to 5 µM

Compound: NCC1OC(OC2C(CO)OC(OC3C(O)C(N)CC(N)C3OC3OC(CO)C(O)C(O)C3N)C2OCCNCCc2cccnc2)C(N)C(O)C1O (stereo not shown) [Compound 9o]
- Kd [1, 4]: 200 nM
- Kd [2, 5]: 1000 nM
- IC50 ([3]; Example 105): 200 nM
- MIC E. Coli. (E. Coli; Example 105): 6 to 12 µM
- MIC S. Aureus (S. Aureus; Example 105): 0.6-1^ uM

Compound: NCC1OC(OC2C(CO)OC(OC3C(O)C(N)CC(N)C3OC3OC(CO)C(O)C(O)C3N)C2OCCNCc2ccccc2)C(N)C(O)C1O (stereo not shown) [Compound 9q]
- Kd [1, 4]: 100 nM
- Kd [2, 5]: 300 nM
- IC50 ([3]; Example 105): 800 nM
- MIC E. Coli. (E. Coli; Example 105): 3 to 6 µM
- MIC S. Aureus (S. Aureus; Example 105): 3 to 5 µM

Compound: NCC1OC(OC2C(CO)OC(OC3C(O)C(N)CC(N)C3OC3OC(CO)C(O)C(O)C3N)C2OCCNCc2ccc(N)nc2)C(N)C(O)C1O (stereo not shown) [Compound 9s]
- Kd [1, 4]: 100 nM
- Kd [2, 5]: 500 nM
- IC50 ([3]; Example 105): 200 nM
- MIC E. Coli. (E. Coli; Example 105): 3 to 6 µM
- MIC S. Aureus (S. Aureus; Example 105): 0.3 to 0.6 µM

Compound: NCC1OC(OC2C(CO)OC(OC3C(O)C(N)CC(N)C3OC3OC(CO)C(O)C(O)C3N)C2OCCNCc2ccnc(N)c2)C(N)C(O)C1O (stereo not shown) [Compound 9t]
- Kd [1, 4]: 20 nM
- Kd [2, 5]: 300 nM
- IC50 ([3]; Example 105): 700 nM
- MIC E. Coli. (E. Coli; Example 105): 6 to 12 µM
- MIC S. Aureus (S. Aureus; Example 105): 0.6-1^ uM

Compound: NCC1OC(OC2C(CO)OC(OC3C(O)C(N)CC(N)C3OC3OC(CO)C(O)C(O)C3N)C2OCCNc2ccccn2)C(N)C(O)C1O (stereo not shown) [Compound 9u]
- Kd [1, 4]: 5000 nM
- Kd [2, 5]: 22000 nM
- IC50 ([3]; Example 105): 400 nM
- MIC E. Coli. (E. Coli; Example 105): 12 to 25 µM
- MIC S. Aureus (S. Aureus; Example 105): 1 to 2 µM

Compound: NCC1OC(OC2C(CO)OC(OC3C(O)C(N)CC(N)C3OC3OC(CO)C(O)C(O)C3N)C2OCCNC23CC4CC(CC(O)(C4)C2)C3)C(N)C(O)C1O (stereo not shown) [Compound 9w]
- Kd ([1]; Example 106): 3200 nM
- Kd ([2]; Example 106): 1700 nM
- IC50 ([3]; Example 106): 400 nM
- MIC E. Coli. (E. Coli; Example 106): 20 to 40 µM
- MIC S. Aureus (S. Aureus; Example 106): 1 to 3 µM

Compound: NCC1OC(OC2C(CO)OC(OC3C(O)C(N)CC(N)C3OC3OC(CO)C(O)C(O)C3N)C2OCCNCCCc2ccccc2)C(N)C(O)C1O (stereo not shown) [Compound 9x]
- Kd [1, 4]: 1000 nM
- Kd [2, 5]: 6300 nM
- IC50 ([3]; Example 105): 100 nM
- MIC E. Coli. (E. Coli; Example 105): 3 to 5 µM
- MIC S. Aureus (S. Aureus; Example 105): 0.6 to 1.2 µM

Compound: NCC1OC(OC2C(CO)OC(OC3C(O)C(N)CC(N)C3OC3OC(CO)C(O)C(O)C3N)C2OCCNCCCCc2ccccc2)C(N)C(O)C1O (stereo not shown) [Compound 9z]
- Kd [1, 4]: 700 nM
- Kd [2, 5]: 6400 nM
- IC50 ([3]; Example 105): 100 nM
- MIC E. Coli. (E. Coli; Example 105): 3 to 5 µM
- MIC S. Aureus (S. Aureus; Example 105): 0.6 to 1.2 µM
